Series [1] relates to HIV-RF. Description: In-vitro anti-viral test on C81-66 cells infected with HIV-RF (wells positive for HIV p24). Conditions: no pretreatment, number of wells positive for HIV p24 out of two replicates. Format: cell-based. An excerpt:
NOTE: • 1. The results are expressed as the number of wells positive for HIV p24 (out of the two replicates at each multiplicity of infection). Thus, 2 means that both wells contained viral antigen, while 0 means no virus was present. • 2. Pretreatment means that the antibodies to Human Alpha feto protein were present during HIV virus absorption as well as afterwards. • 3. An error in diluting the antibodies was made, so that following the first three concentrations (6,2, and 0.6 percent), an extra 10 fold dilution was made, so that the next dilution was 0.02% rather than 0.2%.

In series [2] the target is T1, pure rat Alpha Feto Protein (Rattus norvegicus, UniProt P02773).
T1 sequence (P02773 25-611): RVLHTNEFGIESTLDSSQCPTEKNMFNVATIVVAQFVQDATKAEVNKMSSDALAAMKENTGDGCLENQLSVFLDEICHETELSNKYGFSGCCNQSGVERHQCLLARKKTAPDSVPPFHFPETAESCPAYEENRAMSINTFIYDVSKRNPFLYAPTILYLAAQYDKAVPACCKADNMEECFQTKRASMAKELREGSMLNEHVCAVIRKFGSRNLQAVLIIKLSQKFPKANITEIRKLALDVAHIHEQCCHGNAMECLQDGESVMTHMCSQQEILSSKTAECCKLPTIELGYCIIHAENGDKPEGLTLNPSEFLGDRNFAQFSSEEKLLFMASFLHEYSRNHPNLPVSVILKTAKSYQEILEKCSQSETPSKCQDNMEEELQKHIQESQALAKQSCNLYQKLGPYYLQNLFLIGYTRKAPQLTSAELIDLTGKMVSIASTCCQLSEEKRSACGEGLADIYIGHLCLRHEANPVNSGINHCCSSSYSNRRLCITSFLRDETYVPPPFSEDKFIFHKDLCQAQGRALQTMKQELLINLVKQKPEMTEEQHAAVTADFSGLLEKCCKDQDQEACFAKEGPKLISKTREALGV
In words: Binding of 3H arachidonic acid (C20:4) to protein, free ligand removed with Lipidex 1000. Conditions: 10 µg pure rat AFP; 270.000 DPM 3H C20:4, overnight at 4° C, 10 mM potassium phosphate buffer pH 7.4. How it is done:
(§1) Incubation of 50 […] or 100 µg of each peptide or 10 µg of pure rat Alpha Feto Protein with 270.000 DPM ^3H C20:4 (SA 198 Ci/mmol), overnight at 4° C, in 0.5 ml of 10 mM potassium phosphate buffer 10mM pH 7.4.
(§2) Binding of Arachidonic Acid to peptides or protein measured after separation of the free ligand from the bound one using Lipidex 1000 (100 µl Lipidex solution 10 minutes at 4°C. The free ligand is bound to Lipidex 1000, the bound ligand to peptides and proteins remains in the supernatant after centrifugation.

Series [3] deals with T2, HIV gp120 peptide (Human immunodeficiency virus type 1 group M subtype B, UniProt P04578).
T2 construct: Peptide gp120, 1 mg in 180 µl of an aqueous solution of acetic acid and 20 µl acetonitrile
T2 sequence (P04578 247-267): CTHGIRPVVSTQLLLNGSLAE
Description: Binding of 3H arachidonic acid (C20:4) to peptide, free ligand removed with Lipidex 1000. The procedure:
(§3) Solubilisation of the peptides: • : Peptide gp120, 1 mg in 180 µl of an aqueous solution of acetic acid and 20 µl acetonitrile • : Peptide p24, 1 mg in 200 µl of an aqueous solution of acetic acid
as §1, §2

For series [4], the target named is T3, HIV p24 peptide (Human immunodeficiency virus type 1 group M subtype B, UniProt P04591).
T3 construct: Peptide p24, 1 mg in 200 µl of an aqueous solution of acetic acid
The description is as above. Conditions: 270.000 DPM 3H C20:4, overnight at 4° C, 10 mM potassium phosphate buffer pH 7.4. The procedure:
as §3, §1, §2

A short description of series [5]: Solubility of 3H C20:4 before and after addition of peptides or protein. Format: physicochemical. The procedure:
as §1
Solubility of ^3H C20:4 tested before and after addition of peptides or protein: […]

For the compound `Cc1cn([C@H]2C[C@H](N=[N+]=[N-])[C@@H](CO)O2)c(=O)[nH]c1=O` [AZT], in series [1] (10 μM), the “Virus Replication at a.m.i. (log) of: -1” value amounted to 2, the “Virus Replication at a.m.i. (log) of: -2” value came to 1, the “Virus Replication at a.m.i. (log) of: -3” value came to 0 and the “Virus Replication at a.m.i. (log) of: -4” value stood at 0. Besides, in series [1] (10 μM), the “Virus Replication at a.m.i. (log) of: -5” value is 0 and the “Virus Replication at a.m.i. (log) of: -6” value was 0. Besides, in series [1] (Conc. 0.01 (μM)), the “Virus Replication at a.m.i. (log) of: -1” value turned out to be 2, the “Virus Replication at a.m.i. (log) of: -2” value was determined as 2, the “Virus Replication at a.m.i. (log) of: -3” value is on record as 2 and the “Virus Replication at a.m.i. (log) of: -4” value was 2. Moreover, in series [1] (Conc. 0.01 (μM)), the “Virus Replication at a.m.i. (log) of: -5” value was 1 and the “Virus Replication at a.m.i. (log) of: -6” value was determined as 0. In series [1] (Conc. 0.1 (μM)), the “Virus Replication at a.m.i. (log) of: -1” value worked out at 2, the “Virus Replication at a.m.i. (log) of: -2” value worked out at 2, the “Virus Replication at a.m.i. (log) of: -3” value is 2 and the “Virus Replication at a.m.i. (log) of: -4” value worked out at 2. Besides, in series [1] (Conc. 0.1 (μM)), the “Virus Replication at a.m.i. (log) of: -5” value came out at 0 and the “Virus Replication at a.m.i. (log) of: -6” value is 0. In addition, in series [1] (Conc. 1 (μM)), the “Virus Replication at a.m.i. (log) of: -1” value came out at 2, the “Virus Replication at a.m.i. (log) of: -2” value was 2, the “Virus Replication at a.m.i. (log) of: -3” value was 2 and the “Virus Replication at a.m.i. (log) of: -4” value turned out to be 1. Besides, in series [1] (Conc. 1 (μM)), the “Virus Replication at a.m.i. (log) of: -5” value was 2 and the “Virus Replication at a.m.i. (log) of: -6” value turned out to be 2.
`CCCCC/C=C\C/C=C\C/C=C\C/C=C\CCCC(=O)O` [^3H C20:4, Arachidonic Acid]: the “Binding of ^3H C20:4 to peptides or protein after Lipidex 1000 treatment” value in series [2] is reported as 14.1 x 10^-6 DPM/mg; in series [3] (270.000 DPM 3H C20:4, overnight at 4° C, 10 mM potassium phosphate buffer pH 7.4) it was 1.2 x 10^-6 DPM/mg; in series [4], 0.8 x 10^-6 DPM/mg. Also, in series [3] (conclusion in words), the “binding of C20:4” value was “clear binding”. Moreover, the “Solubility of ^3H C20:4” value stood at 100% in series [5] (in presence of 10 µg pure rat AFP); 65% in series [5] (in presence of gp120: 50µg); 90% in series [5] (in presence of gp120: 100µg); 23% in series [5] (in presence of p24 50µg); 30% in series [5] (in presence of p24 100µg); 70% in series [5] (without peptide or protein). The “insolubility of the Arachidonic Acid” value in series [5] (in the presence of p24 peptide, conclusion in words) is “important insolubility”.

These data come from patent EP0468441A1, “Use of particular compounds for manufacture of pharmaceutical formulations for metabolic treatments” (Prendergast, Patrick Thomas, priority 1990, dated 1992).
